Assay results reported in US8440830B2, “Tetrahydro-fused pyridines as histone deacetylase inhibitors” (4SC AG, priority 2007, dated 2013).

What follows are compounds tested on A549 NSCLC cells (assay: Cellular cytotoxicity assay (Alamar Blue), A549). Conditions: Homo sapiens, 72 h, upper end given as ≧100, read-out: IC50 (μM), cytotoxicity towards A549 NSCLC cells.
Type: cell-based
How it was run: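 Cells were dosed 24 h after seeding with semi-log compound dilutions in quadruplicate, then incubated 72 h at 37 °C, 5% CO2. Viability read by Resazurin reduction (4 h, fluorescence 544/590 nm) relative to untreated 0.5% DMSO controls; IC50 by non-linear regression.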

| SMILES | IC50 [µM] |
| --- | --- |
| Nc1ccccc1NC(=O)c1nc2c(s1)CN(S(=O)(=O)c1ccc3ccccc3c1)CC2 [Example 156, N-(2-aminophenyl)-5-(2-naphthylsulfonyl)-4,5,6,7-tetrahydro[1,3]thiazolo[5,4-c]pyridine-2-carboxamide] | ≥ 0.2 |
| Nc1ccccc1NC(=O)c1nc2c(s1)CN(S(=O)(=O)c1cccs1)CC2 [Example 157, N-(2-aminophenyl)-5-(2-thienylsulfonyl)-4,5,6,7-tetrahydro[1,3]thiazolo[5,4-c]pyridine-2-carboxamide] | ≥ 0.2 |
| COC(=O)c1sccc1S(=O)(=O)N1CCc2nc(C(=O)Nc3ccccc3N)sc2C1 [Example 158, Methyl 3-({2-[(2-aminophenyl)carbamoyl]-6,7-dihydro[1,3]thiazolo[5,4-c]pyridin-5(4H)-yl}sulfonyl)thiophene-2-carboxylate] | ≥ 0.2 |
| CC(=O)Nc1nc(C)c(S(=O)(=O)N2CCc3nc(C(=O)Nc4ccccc4N)sc3C2)s1 [Example 159, 5-[(2-acetamido-4-methyl-1,3-thiazol-5-yl)sulfonyl]-N-(2-aminophenyl)-4,5,6,7-tetrahydro[1,3]thiazolo[5,4-c]pyridine-2-carboxamide] | ≥ 0.2 |
| Nc1ccccc1NC(=O)c1nc2c(s1)CN(S(=O)(=O)c1ccc(C(F)(F)F)cc1)CC2 [Example 161, N-(2-aminophenyl)-5-{[4-(trifluoromethyl)phenyl}sulfonyl]-4,5,6,7-tetrahydro[1,3]thiazolo[5,4-c]pyridine-2-carboxamide] | ≥ 0.2 |
| Nc1ccccc1NC(=O)c1nc2c(s1)CN(S(=O)(=O)c1cccc(C(F)(F)F)c1)CC2 [Example 162, N-(2-aminophenyl)-5-{[3-(trifluoromethyl)phenyl]sulfonyl}-4,5,6,7-tetrahydro[1,3]thiazolo[5,4-c]pyridine-2-carboxamide] | ≥ 0.2 |
| Nc1ccccc1NC(=O)c1nc2c(s1)CN(S(=O)(=O)c1cccc(F)c1)CC2 [Example 163, N-(2-aminophenyl)-5-[(3-fluorophenyl)sulfonyl]-4,5,6,7-tetrahydro[1,3]-thiazolo[5,4-c]pyridine-2-carboxamide] | ≥ 0.2 |
| CC(C)S(=O)(=O)N1CCc2nc(C(=O)Nc3ccccc3N)sc2C1 [Example 164, N-(2-aminophenyl)-5-(isopropylsulfonyl)-4,5,6,7-tetrahydro[1,3]thiazolo[5,4-c]pyridine-2-carboxamide] | ≥ 0.2 |
| Nc1ccccc1NC(=O)c1nc2c(s1)CN(S(=O)(=O)c1cccc(OC(F)F)c1)CC2 [Example 165, N-(2-aminophenyl)-5-{[3-(difluoromethoxy)phenyl]sulfonyl}-4,5,6,7-tetrahydro[1,3]thiazolo[5,4-c]pyridine-2-carboxamide] | ≥ 0.2 |
| Nc1ccccc1NC(=O)c1nc2c(s1)CN(S(=O)(=O)c1ccc(OC(F)F)cc1)CC2 [Example 166, N-(2-aminophenyl)-5-{[4-(difluoromethoxy)phenyl]sulfonyl}-4,5,6,7-tetrahydro[1,3]thiazolo[5,4-c]pyridine-2-carboxamide] | ≥ 0.2 |
| Nc1ccccc1NC(=O)c1nc2c(s1)CN(S(=O)(=O)c1cccc(OC(F)(F)F)c1)CC2 [Example 167, N-(2-aminophenyl)-5-{[3-(trifluoromethoxy)phenyl]sulfonyl}-4,5,6,7-tetrahydro[1,3]thiazolo[5,4-c]pyridine-2-carboxamide] | ≥ 0.2 |
| Nc1ccccc1NC(=O)c1nc2c(s1)CN(S(=O)(=O)c1ccc(OC(F)(F)F)cc1)CC2 [Example 168, N-(2-aminophenyl)-5-{[4-(trifluoromethoxy)phenyl]sulfonyl}-4,5,6,7-tetrahydro[1,3]thiazolo[5,4-c]pyridine-2-carboxamide] | ≥ 0.2 |
| COc1ccc(N)c(NC(=O)c2nc3c(s2)CN(S(=O)(=O)c2ccc(C)cc2)CC3)c1 [Example 169, N-(2-amino-5-methoxyphenyl)-5-[(4-methylphenyl)sulfonyl]-4,5,6,7-tetrahydro[1,3]thiazolo[5,4-c]pyridine-2-carboxamide] | ≥ 0.2 |
| Cc1ccc(S(=O)(=O)N2CCc3nc(C(=O)Nc4cc(C(C)C)ccc4N)sc3C2)cc1 [Example 170, N-(2-amino-5-isopropylphenyl)-5-[(4-methylphenyl)sulfonyl]-4,5,6,7-tetrahydro[1,3]thiazolo[5,4-c]pyridine-2-carboxamide] | ≥ 0.2 |
| COc1ccc(S(=O)(=O)N2CCc3nc(C(=O)Nc4cc(OC)ccc4N)sc3C2)cc1 [Example 171, N-(2-amino-5-methoxyphenyl)-5-[(4-methoxyphenyl)sulfonyl]-4,5,6,7-tetrahydro[1,3]thiazolo[5,4-c]pyridine-2-carboxamide] | ≥ 0.2 |
| Nc1ccccc1NC(=O)c1nc2c(s1)CN(C(=O)COc1ccccc1)CC2 [Example 172, N-(2-aminophenyl)-5-(phenoxyacetyl)-4,5,6,7-tetrahydro[1,3]thiazolo[5,4-c]pyridine-2-carboxamide] | ≥ 0.2 |
| Nc1ccccc1NC(=O)c1nc2c(s1)CN(C(=O)COc1ccc3ccccc3c1)CC2 [Example 175, N-(2-aminophenyl)-5-[(2-naphthyloxy)acetyl]-4,5,6,7-tetrahydro[1,3]thiazolo[5,4-c]pyridine-2-carboxamide] | ≥ 0.2 |
| COCC(=O)N1CCc2nc(C(=O)Nc3ccccc3N)sc2C1 [Example 177, N-(2-aminophenyl)-5-(methoxyacetyl)-4,5,6,7-tetrahydro[1,3]thiazolo[5,4-c]pyridine-2-carboxamide] | ≥ 0.2 |
| COc1ccc(OCC(=O)N2CCc3nc(C(=O)Nc4cc(C(C)C)ccc4N)sc3C2)cc1 [Example 178, N-(2-amino-5-isopropylphenyl)-5-[(4-methoxyphenoxy)acetyl]-4,5,6,7-tetrahydro[1,3]thiazolo[5,4-c]pyridine-2-carboxamide] | ≥ 0.2 |
| COc1cccc(OCC(=O)N2CCc3nc(C(=O)Nc4ccccc4N)sc3C2)c1 [Example 179, N-(2-aminophenyl)-5-[(3-methoxyphenoxy)acetyl]-4,5,6,7-tetrahydro[1,3]-thiazolo[5,4-c]pyridine-2-carboxamide] | ≥ 0.2 |
| Nc1ccccc1NC(=O)c1nc2c(s1)CN(C(=O)Oc1ccc(-c3ccccc3)cc1)CC2 [Example 181, Biphenyl-4-yl 2-[(2-aminophenyl)carbamoyl]-6,7-dihydro[1,3]thiazolo[5,4-c]pyridine-5(4H)-carboxylate] | ≥ 0.2 |
| CCCOC(=O)c1ccc(OC(=O)N2CCc3nc(C(=O)Nc4ccccc4N)sc3C2)cc1 [Example 184, 4-(propoxycarbonyl)phenyl 2-[(2-aminophenyl)carbamoyl]-6,7-dihydro[1,3]thiazolo[5,4-c]pyridine-5(4H)-carboxylate] | ≥ 0.2 |
| Nc1ccccc1NC(=O)c1nc2c(s1)CN(C(=O)Oc1ccc3ccccc3c1)CC2 [Example 185, 2-naphthyl 2-[(2-aminophenyl)carbamoyl]-6,7-dihydro[1,3]thiazolo[5,4-c]-pyridine-5(4H)-carboxylate] | ≥ 0.2 |
| CCCCOC(=O)N1CCc2nc(C(=O)Nc3ccccc3N)sc2C1 [Example 187, Butyl 2-[(2-aminophenyl)carbamoyl]-6,7-dihydro[1,3]thiazolo[5,4-c]pyridine-5(4H)-carboxylate] | ≥ 0.2 |
| Nc1ccccc1NC(=O)c1nc2c(s1)CN(C(=O)OCc1ccccc1)CC2 [Example 188, Benzyl 2-[(2-aminophenyl)carbamoyl]-6,7-dihydro[1,3]thiazolo[5,4-c]pyridine-5(4H)-carboxylate] | ≥ 0.2 |
| Nc1ccccc1NC(=O)c1nc2c(s1)CN(c1ccc(C(F)(F)F)cn1)CC2 [Example 195, N-(2-aminophenyl)-5-[5-(trifluoromethyl)pyridin-2-yl]-4,5,6,7-tetrahydro[1,3]thiazolo[5,4-c]pyridine-2-carboxamide] | ≥ 0.2 |
| Nc1ccccc1NC(=O)c1nc2c(s1)CN(c1ccc(NC(=O)NCc3ccccc3)cc1)CC2 [Example 198, N-(2-aminophenyl)-5-{4-[(benzylcarbamoyl)amino]phenyl}-4,5,6,7-tetrahydro[1,3]thiazolo[5,4-c]pyridine-2-carboxamide] | ≥ 0.2 |
| Cc1ccc(S(=O)(=O)Nc2ccc(N3CCc4nc(C(=O)Nc5ccccc5N)sc4C3)cc2)cc1 [Example 199, N-(2-aminophenyl)-5-(4-{[(4-methylphenyl)sulfonyl]amino}phenyl)-4,5,6,7-tetrahydro[1,3]thiazolo[5,4-c]pyridine-2-carboxamide] | ≥ 0.2 |
